Test [1] has as its target T1, CX3CL1 (Homo sapiens, UniProt P78423).
T1 sequence (P78423 25-100): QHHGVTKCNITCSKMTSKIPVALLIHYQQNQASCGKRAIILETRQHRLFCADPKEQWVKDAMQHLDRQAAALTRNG
Put plainly: 2D 1H-15N HSQC NMR titration. Conditions: unbuffered pH 3.6, 25 °C; 250 μM protein; 0-100 mM ligand. The test is classed as binding.

The target of test [2] is T2, CXCL12 (Homo sapiens, UniProt P48061).
T2 construct: [U-15N] recombinant mature chemokine, signal peptide removed; predominantly monomer under assay conditions
Put plainly: 2D 1H-15N HSQC NMR titration. Type of test: binding. The following applies: 25 mM d-MES pH 6.8, 37 °C; 250 μM protein; 0-100 mM ligand; shifts at the sTyr21 and sTyr12 sites.

The target of test [3] is T3, CCL5 (Homo sapiens, UniProt P13501).
T3 construct: [U-15N] recombinant mature chemokine, signal peptide removed; dimeric in the assay
T3 sequence (P13501 24-91): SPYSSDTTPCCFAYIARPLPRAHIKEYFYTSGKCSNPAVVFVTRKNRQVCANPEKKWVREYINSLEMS
Description: 2D 1H-15N HSQC NMR titration. Type of test: binding. The following applies: 50 mM NaPO4 pH 3.2, 25 °C; 125 μM protein (dimeric); 0-100 mM ligand.

In test [4] the target is CCL5 (Homo sapiens) (UniProt P13501). Conditions: cited from earlier work.

pKd: −log10 of the molar value.

`N[C@@H](Cc1ccc(OS(=O)(=O)O)cc1)C(=O)O` [sulfotyrosine]: the chemical shift perturbation result was “Sulfotyrosine titration produced significant perturbations in CX3CL1 residues” in test [1]; “HSQC spectral overlays (Figure 4A) demonstrate significant chemical shift perturbations in the chemokine” in test [2]; “Residues His23, Lys45, and Arg47 identified in our titration” in test [3].

For orientation: pKd means the negative decadic logarithm of the Kd, by convention in mol/L. Turning to CCL5 (from UniProt P13501), the pKd in test [4] is 4.46.

The values are drawn from paper PMC3131587, “Sulfotyrosine Recognition as Marker for Druggable Sites in the Extracellular Space” (International Journal of Molecular Sciences, 2011).
